Molecular target: T1, recombinant human Tdp1 (tyrosyl-DNA phosphodiesterase 1) (Homo sapiens, UniProt Q9NUW8)
T1 construct: recombinant from plasmid pET 16B Tdp1 in Escherichia coli
Experiment: real-time fluorescence biosensor (FAM-oligonucleotide-BHQ1) cleavage
Type: biochemical
Excerpt: real-time fluorescence biosensor (FAM-oligonucleotide-BHQ1) cleavage on recombinant human Tdp1 (tyrosyl-DNA phosphodiesterase 1)

T1 sequence (Q9NUW8 whole entry): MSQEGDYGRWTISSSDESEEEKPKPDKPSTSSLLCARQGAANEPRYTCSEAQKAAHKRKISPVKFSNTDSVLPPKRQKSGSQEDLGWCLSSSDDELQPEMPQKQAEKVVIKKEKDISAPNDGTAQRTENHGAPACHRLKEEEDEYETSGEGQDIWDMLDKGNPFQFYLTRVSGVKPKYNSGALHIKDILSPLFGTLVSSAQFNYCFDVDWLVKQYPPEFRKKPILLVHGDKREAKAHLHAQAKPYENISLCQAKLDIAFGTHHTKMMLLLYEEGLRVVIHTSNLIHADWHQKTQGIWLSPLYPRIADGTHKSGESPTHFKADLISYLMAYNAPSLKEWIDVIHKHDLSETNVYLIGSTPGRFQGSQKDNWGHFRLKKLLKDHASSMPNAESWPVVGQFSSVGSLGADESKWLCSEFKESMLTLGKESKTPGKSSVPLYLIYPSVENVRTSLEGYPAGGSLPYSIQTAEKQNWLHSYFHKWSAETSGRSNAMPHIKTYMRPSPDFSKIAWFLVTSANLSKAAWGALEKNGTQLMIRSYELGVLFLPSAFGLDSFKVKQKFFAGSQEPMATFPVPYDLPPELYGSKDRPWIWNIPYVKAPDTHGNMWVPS

Compound	IC50 [µM]
O=S(=O)(O)CCSc1nc2ccccc2s1 [STK370528]	83 ± 24
O=S(=O)(O)CCCSc1nc2ccccc2[nH]1 [STK376552]	686 ± 14
